In paper PMC11151152, “Chemoproteomics enables identification of coatomer subunit zeta‐1 targeted by a small molecule for enterovirus A71 inhibition” (MedComm, 2024):

Key:
[1] = target: T1, COPZ1 (endogenous, in EV-A71-infected RD cells) (Homo sapiens, UniProt P61923); assay: competition against MPA-P photoaffinity labelling, pulldown / western blot; assay type: cell-based; details: competitor of photoaffinity probe MPA-P
T1 sequence (P61923 1-177): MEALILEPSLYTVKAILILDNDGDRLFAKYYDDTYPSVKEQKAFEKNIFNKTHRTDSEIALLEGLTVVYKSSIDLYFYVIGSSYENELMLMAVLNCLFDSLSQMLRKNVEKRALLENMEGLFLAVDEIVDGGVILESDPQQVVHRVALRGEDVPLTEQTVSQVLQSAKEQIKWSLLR

[2] = target: T2, COPZ1^7-150 (truncated human coatomer subunit zeta-1) (Homo sapiens, UniProt P61923); assay: fluorescence thermal shift assay (Sypro Orange); assay type: binding; details: 10 µM compound; 4 µM protein; 20 mM HEPES, 150 mM NaCl, pH 7.5
T2 construct: E. coli BL21(DE3), pET-28a(+)
T2 sequence (P61923 7-150): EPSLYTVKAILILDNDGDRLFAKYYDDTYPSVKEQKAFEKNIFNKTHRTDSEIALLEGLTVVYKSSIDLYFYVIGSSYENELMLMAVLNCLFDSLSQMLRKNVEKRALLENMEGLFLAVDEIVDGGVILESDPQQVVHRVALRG

[3] = target: T2, COPZ1^7-150 (truncated human coatomer subunit zeta-1); assay: SPR, CM5 chip, COPZ1 immobilised; assay type: binding
[4] = target: T1, COPZ1 (endogenous, in EV-A71-infected RD cells); assay: photoaffinity labelling in cells, pulldown / western blot; assay type: cell-based; details: covalent (diazirine photo-crosslinking, 365 nm)

ΔT m [2] [°C] | Kd [3] [µM] | Compound | competition against MPA-P photoaffinity labelling, pulldown / western blot [1] | photoaffinity labelling in cells, pulldown / western blot [4]
−3.6 | 0.024 | O=C(c1ccc(C(F)(F)F)cc1O)c1[nH]c(Cl)c(Cl)c1-n1c(C(=O)c2ccc(C(F)(F)F)cc2O)cc(Cl)c1Cl [MPA-CF3] | implying that MPA‐CF3 specifically binds to COPZ1 in intact cells | –
– | – | C#CCCC1(CCSc2c(Cl)cc(C(=O)c3ccc(C(F)(F)F)cc3O)n2-c2c(C(=O)c3ccc(C(F)(F)F)cc3O)[nH]c(Cl)c2Cl)N=N1 [MPA-P] | – | labeling intensity of COPZ1 by MPA‐P in EV‐A71‐infected RD cells
